How the values were obtained:
[1] = test system: PPD glucuronidation in pooled HLMs; experiment: Chemical inhibition of PPD glucuronidation in pooled HLMs; format: in vitro ADME, human; settings: PPD 50 μM; for inhibition of PPD glucuronidation (in words): inhibitor 5, 50, and 200 μM
Experimental: Fluconazole, androsterone, estradiol, and hecogenin [25, 34] were used to inhibit their potential inhibitory effects on PPD glucuronidation in pooled HLMs. A set of concentrations (5, 50, and 200 μM) was used for all four inhibitors. The concentration of PPD was set at 50 μM. The reaction time and protein concentration were set at 60 min and 0.5 mg/mL, respectively. All other incubation conditions were the same as those for Glucuronidation of PPD in pooled HLMs described above. The concentration of organic solvent was 1% of the total incubation volume. An experimental group without inhibitors but with solvents was used as the control, in which the activities of PPD glucuronidation were designated as 100%. The activities of PPD glucuronidation in the inhibited samples were compared with the control to evaluate the remaining enzyme activity. For determination of IC50 (representing the concentration that inhibits 50% of the control activity) of hecogenin, experiments with a set of concentrations of hecogenin (1–400 μM) in pooled HLMs were conducted.

human recombinant UGT1A3 = target: T1, human recombinant UGT1A3 (Homo sapiens, UniProt P35503); experiment: PPD glucuronidation with recombinant human UGT1A3; format: in vitro ADME; settings: UGT1A3 0.25 mg protein/mL
T1 construct: purchased BD Gentest
T1 sequence (P35503 29-534): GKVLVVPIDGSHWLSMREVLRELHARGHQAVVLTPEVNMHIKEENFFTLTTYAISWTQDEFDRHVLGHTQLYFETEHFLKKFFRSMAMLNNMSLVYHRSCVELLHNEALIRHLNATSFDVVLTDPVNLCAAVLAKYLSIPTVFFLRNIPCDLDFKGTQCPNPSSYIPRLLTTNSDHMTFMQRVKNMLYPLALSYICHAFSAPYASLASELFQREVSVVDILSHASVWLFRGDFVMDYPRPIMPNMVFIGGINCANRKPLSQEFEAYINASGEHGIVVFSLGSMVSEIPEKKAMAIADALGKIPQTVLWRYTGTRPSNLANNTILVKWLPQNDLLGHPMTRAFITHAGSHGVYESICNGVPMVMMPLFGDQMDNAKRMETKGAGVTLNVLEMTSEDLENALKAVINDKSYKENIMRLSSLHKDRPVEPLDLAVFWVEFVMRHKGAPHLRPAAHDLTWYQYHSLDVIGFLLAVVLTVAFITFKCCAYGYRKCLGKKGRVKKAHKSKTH
Experimental: (§1) PPD glucuronidation was measured in reaction mixtures containing human recombinant UGT1A1, 1A3, 1A4, 1A6, 1A7, 1A8, 1A9, 1A10, 2B4, 2B7, 2B15, and 2B17. Three substrate concentrations (10, 50, and 200 μM) were used in this study. The incubation conditions were the same as those for Glucuronidation of PPD in pooled HLMs described above except for the protein concentration (0.25 mg/mL).

[2] = test system: pooled rat liver microsomes (RLMs); experiment: Kinetics of PPD glucuronidation by pooled rat liver microsomes; format: in vitro ADME; settings: formation of PPDG
Experimental: (§2) In vitro PPD glucuronidation was in an incubation volume of 100 μL. Incubation conditions were initially optimized for the linear product formation with respect to protein concentration (0.2–1 mg/mL), and incubation time (15–120 min). The stock solution of PPD was prepared in dimethyl sulfoxide (DMSO), and the final concentration of DMSO in the incubations was 1% (v/v). Briefly, the incubation mixture contained HLMs or RLMs (0.5 mg of protein/mL), UDPGA (2 mM), MgCl2 (4 mM), alamethicin (25 μg/mg protein), PPD (10–500 μM), and Tris–HCl buffer (50 mM, pH 7.4). The mixture was incubated for 5 min at 37 °C, and then the reaction was started by the addition of UDPGA and incubated in a shaking water bath for 60 min. The reaction was terminated by addition of 200 μL of ice-cold acetonitrile containing GRg1 (internal standard (IS), 0.5 μg/mL) and then centrifuged at 15,000× g for 10 min at 4 °C. The supernatant was evaporated to dryness under nitrogen gas at room temperature, and the residue was reconstituted with 200 µL of 20% acetonitrile. After centrifugation at 15,000× g for 10 min at 4 °C, 5 μL of the supernatants was subjected to analysis. Incubations without PPD and UDPGA were served as blank and negative controls, respectively.
(§3) Quantitative analysis was conducted on an Agilent 1290 infinity system (Agilent Technologies, Santa Clara, CA, USA) coupled with an MS/MS detector (6410 B Triple Quad LC/MS; Agilent Technologies) in negative ion mode. The chromatographic separations were performed on an ACQUITY UPLC HSS T3 column (100 mm × 2.1 mm i. d. (inner diameter), 1.8 μm) thermostated at 45 °C. The mobile phase consisted of A (5 mM ammonium acetate in water) and B (acetonitrile) at a flow rate of 0.4 mL/min. The gradient elution program was set as follow: 0–2 min 20%–50% B, 2–4 min 50%–60% B, 4–5 min 60% B and finally, reconditioning the column with 20% B for 1 min. Optimized ion source parameters were set as follows: gas temperature 325 °C; gas flow 10 L/min; nebulizer 35 psi; capillary voltage 3500 V; fragmentor voltage 265 V for PPDG and 215 V for IS; cell accelerator voltage 0 V; dwell time 200 ms. Data were acquired in multiple reaction monitor (MRM) mode for the following transitions: m/z 635.4 to m/z 375.1 for PPDG and m/z 799.5 to m/z 637.6 for IS, with the collision energy being set at 50 and 26 V, respectively.
(§4) All results were obtained from three replicates in different microsomal incubations, and all the data were expressed as mean ± SD. To estimate the kinetic parameters, data were transformed and Eadie–Hofstee curves were plotted, which help to identify kinetic models. […] In addition, CLmax was calculated according to the Equation (2). […]

[3] = test system: pooled human liver microsomes (HLMs); experiment: Kinetics of PPD glucuronidation by pooled human liver microsomes; format: in vitro ADME; settings: formation of PPDG
Experimental: as §2, §3, §4

[4] = design: method as in PMID 23494798; settings: previous studies ref 13; cited from earlier work
human recombinant UGT1A4 [5] = target: T2, human recombinant UGT1A4 (Homo sapiens, UniProt P22310); experiment: PPD glucuronidation with recombinant human UGT1A4; format: in vitro ADME; design: purchased BD Gentest; settings: UGT1A4 0.25 mg protein/mL
T2 sequence (P22310 29-534): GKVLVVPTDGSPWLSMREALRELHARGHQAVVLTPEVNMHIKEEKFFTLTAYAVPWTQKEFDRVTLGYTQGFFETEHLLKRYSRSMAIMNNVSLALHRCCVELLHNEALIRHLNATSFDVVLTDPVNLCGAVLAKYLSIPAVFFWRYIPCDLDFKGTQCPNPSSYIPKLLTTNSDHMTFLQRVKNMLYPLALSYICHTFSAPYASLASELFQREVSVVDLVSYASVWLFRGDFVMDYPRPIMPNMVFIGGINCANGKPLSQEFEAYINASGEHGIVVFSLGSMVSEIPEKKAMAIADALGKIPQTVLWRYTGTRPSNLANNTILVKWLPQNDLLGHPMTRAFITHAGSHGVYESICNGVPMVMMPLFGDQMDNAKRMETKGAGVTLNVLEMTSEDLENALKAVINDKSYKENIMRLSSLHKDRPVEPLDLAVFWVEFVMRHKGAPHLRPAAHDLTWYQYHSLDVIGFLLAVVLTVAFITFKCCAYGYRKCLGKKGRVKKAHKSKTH
Experimental: as §1

human recombinant UGT1A4 [6] = target: T2, human recombinant UGT1A4; experiment: Kinetics of PPD glucuronidation by recombinant UGT1A4; format: in vitro ADME; settings: formation of PPDG
Experimental: (§5) A kinetic study for PPD glucuronidation by human recombinant UGT 1A4 was also conducted by incubating PPD with human recombinant UGT 1A4 at protein concentration of 0.25 mg/mL for 1 h. All other incubation conditions were identical to those of glucuronidation of PPD in pooled HLMs.
(§6) All results were obtained from three replicates in different microsomal incubations, and all the data were expressed as mean ± SD. To estimate the kinetic parameters, data were transformed and Eadie–Hofstee curves were plotted, which help to identify kinetic models. Then kinetic parameters were obtained by fitting velocity data to the sigmoidal kinetic (Hill) model (Equation (1)) using Graph Pad Prism 5.0 software (San Diego, CA, USA). In addition, CLmax was calculated according to the Equation (2). (1) V=Vmax × [S]^n/S50n + [S]^n (2) CLmax = Vmax/S50 × n−1/n(n−1)^1/n
(§7) V is reaction velocity, Vmax is the maximum reaction velocity, [S] is the substrate concentration, S50 is the substrate concentration at 0.5 Vmax (analogous to Km in the Michaelis–Menten equation), n is the Hill coefficient (which reflects the degree of sigmoidicity of the velocity versus substrate-concentration relationship), CLmax is the maximum clearance, which provides an estimate of the highest clearance attained.

[7] = test system: human recombinant UGT1A1, 1A6, 1A7, 1A8, 1A9, 1A10, 2B4, 2B7, 2B15, and 2B17; experiment: PPD glucuronidation with other recombinant human UGT isozymes; format: in vitro ADME; settings: PPD 10, 50, and 200 μM, 0.25 mg protein/mL
Experimental: as §1

[8] = substrate: CC(C)=CCC[C@](C)(O)C1CC[C@]2(C)[C@@H]1[C@H](O)CC1[C@@]3(C)CC[C@H](O)C(C)(C)C3CC[C@]12C; experiment: Kinetics of PPD glucuronidation by recombinant UGT1A4; format: in vitro ADME, human; settings: other: formation of PPDG, recombinant UGT1A4, Hill kinetics, 10–500 μM PPD
Experimental: as §5, §6, §7

[9] = RLMs, Hill kinetics, 10–500 μM PPD
[10] = HLMs, Hill kinetics, 10–500 μM PPD

Molecule: C[C@]12CC[C@@H](O)C[C@@H]1CC[C@@H]1[C@@H]2CC[C@]2(C)C(=O)CC[C@@H]12 [androsterone]
- inhibition of PPD glucuronidation (in words) ([1]; pooled HLMs 0.5 mg/mL): weak inhibition

Molecule: C[C@]12CC[C@@H]3c4ccc(O)cc4CC[C@H]3[C@@H]1CC[C@@H]2O [estradiol]
- inhibition of PPD glucuronidation (in words) ([1]; pooled HLMs 0.5 mg/mL): weak inhibition

Molecule: hecogenin
- IC50 ([1]; pooled HLMs, hecogenin 1–400 μM): 21.3 ± 4.31 µM
- inhibition of PPD glucuronidation (in words) ([1]; pooled HLMs 0.5 mg/mL): concentration-dependent inhibitory effect
- inhibitory effect on PPD glucuronidation compared with the solvent control ([1]; inhibitor at 50 µM, pooled HLMs 0.5 mg/mL): more than 60%

Molecule: OC(Cn1cncn1)(Cn1cncn1)c1ccc(F)cc1F [Fluconazole, fluconazole]
- inhibition of PPD glucuronidation (in words) ([1]; pooled HLMs 0.5 mg/mL): no inhibition

Molecule: CC(C)=CCC[C@](C)(O)[C@H]1CC[C@]2(C)[C@@H]1[C@H](O)C[C@@H]1[C@@]3(C)CC[C@H](O)C(C)(C)[C@@H]3CC[C@]12C [PPD, 20(S)-protopanaxadiol]
- catalytic activity towards PPD glucuronidation (human recombinant UGT1A3; PPD 10 μM): 0.02 ± 0.004 nmol/min/mg protein
- catalytic activity towards PPD glucuronidation (human recombinant UGT1A3; PPD 50 μM): 0.04 ± 0.004 nmol/min/mg protein
- catalytic activity towards PPD glucuronidation (human recombinant UGT1A3; PPD 200 μM): 0.04 ± 0.003 nmol/min/mg protein
- Vmax ([2]; RLMs 0.5 mg protein/mL, Hill kinetics, 10–500 μM PPD, mean ± SD): 0.30 ± 0.01 nmol/min/mg Protein
- S50 [2, 9]: 20.68 ± 1.39 µM
- n (Hill coefficient) [2, 9]: 2.50 ± 0.48
- CLmax ([2]; RLMs, calculated by Equation (2)): 7.36 ± 0.27 μL/min/mg Protein
- Vmax ([3]; HLMs 0.5 mg protein/mL, Hill kinetics, 10–500 μM PPD, mean ± SD): 0.32 ± 0.01 nmol/min/mg Protein
- S50 [3, 10]: 42.80 ± 0.73 µM
- n (Hill coefficient) [3, 10]: 2.12 ± 0.24
- CLmax ([3]; HLMs, calculated by Equation (2)): 3.70 ± 0.01 μL/min/mg Protein
- oral bioavailability [4]: ~30%
- catalytic activity towards PPD glucuronidation (human recombinant UGT1A4 [5]; PPD 10 μM): 0.06 ± 0.01 nmol/min/mg protein
- catalytic activity towards PPD glucuronidation (human recombinant UGT1A4 [5]; PPD 50 μM): 0.18 ± 0.01 nmol/min/mg protein
- catalytic activity towards PPD glucuronidation (human recombinant UGT1A4 [5]; PPD 200 μM): 0.35 ± 0.05 nmol/min/mg protein
- Vmax (human recombinant UGT1A4 [6]; recombinant UGT1A4 0.25 mg/mL, Hill kinetics, 10–500 μM PPD, mean ± SD): 0.31 ± 0.01 nmol/min/mg Protein
- n (Hill coefficient) (human recombinant UGT1A4 [6]; recombinant UGT1A4, Hill kinetics, 10–500 μM PPD): 2.34 ± 0.23
- CLmax (human recombinant UGT1A4 [6]; recombinant UGT1A4, calculated by Equation (2)): 8.39 ± 0.79 μL/min/mg Protein
- PPD glucuronidation by other UGT isozymes (in words) [7]: did not participate in this metabolism

B1: human recombinant UGT 1A4 (Homo sapiens) (protein)
chain: T2 sequence (P22310 29-534)
notes: purchased BD Gentest
- K0.5 [8]: 18.49 ± 1.85 µM
- Vmax [8]: 0.00031 µmol/min/mg
